Results taken from patent US20140057953A1, “BIARYL DERIVATIVES AS SELECTIVE 17BETA-HYDROXYSTEROID DEHYDROGENASE TYPE 2 INHIBITORS” (priority 2011, published 2014).
pIC50: −log10 of the molar value. Where two headings read alike, the source gives them in different places.

Assays:
[1] = target: T1, 17β-HSD2 (Homo sapiens, UniProt P37059); conditions: cited from earlier work
T1 sequence (P37059 1-387): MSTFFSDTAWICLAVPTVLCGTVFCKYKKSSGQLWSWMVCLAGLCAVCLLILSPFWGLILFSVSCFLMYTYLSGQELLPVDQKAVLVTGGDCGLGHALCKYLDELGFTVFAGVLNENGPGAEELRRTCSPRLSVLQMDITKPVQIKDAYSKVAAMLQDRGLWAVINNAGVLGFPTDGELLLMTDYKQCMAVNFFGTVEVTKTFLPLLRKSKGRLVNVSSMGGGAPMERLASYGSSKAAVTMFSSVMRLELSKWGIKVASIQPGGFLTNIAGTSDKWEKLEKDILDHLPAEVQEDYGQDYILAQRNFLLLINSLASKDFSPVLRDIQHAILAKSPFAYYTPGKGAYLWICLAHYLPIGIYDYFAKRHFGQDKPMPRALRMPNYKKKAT

[2] = target: T2, 17β-HSD1 (Homo sapiens, UniProt P14061); test: Inhibition of 17β-HSD1 in cell-free assay; assay type: biochemical; conditions: human placenta, cytosolic fraction, substrate E1 500 nM, cofactor NADH 500 μM
T2 construct: For the partial purification of 17β-HSD1, the cytosolic fraction was precipitated with ammonium sulfate; from tissue; host or cells: human placenta, cytosolic fraction
T2 sequence (P14061 1-328): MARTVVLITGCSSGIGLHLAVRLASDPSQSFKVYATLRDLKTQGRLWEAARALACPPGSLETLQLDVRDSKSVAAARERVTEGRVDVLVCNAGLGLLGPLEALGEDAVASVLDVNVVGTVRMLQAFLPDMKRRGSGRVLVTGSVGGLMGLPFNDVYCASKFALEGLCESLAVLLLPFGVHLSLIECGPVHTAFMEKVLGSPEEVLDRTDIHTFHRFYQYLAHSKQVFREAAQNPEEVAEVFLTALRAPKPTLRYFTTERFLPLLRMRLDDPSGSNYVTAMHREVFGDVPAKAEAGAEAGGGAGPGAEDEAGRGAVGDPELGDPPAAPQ
Experimental: (§1) Fresh human placenta was homogenized. Cytosolic and microsomal fractions were separated by centrifugation at 1000 g, 10000 g and 150000 g. 17β-HSD2 was obtained directly from the microsomal fraction. For the partial purification of 17β-HSD1, the cytosolic fraction was precipitated with ammonium sulfate. Aliquots containing 17β-HSD1 or 17β-HSD2 were stored frozen.
The 17β-HSD1 inhibition assay was performed similarly to the 17β-HSD2 test. The cytosolic fraction was incubated with NADH [500 μM], test compound and a mixture of unlabelled- and [^3H]-E1 (final concentration: 500 nM, 0.15 μCi) for 10 min at 37° C. Further treatment of the samples and HPLC separation was carried out as mentioned above for 17β-HSD2.

[3] = target: T1, 17β-HSD2; test: Inhibition of 17β-HSD2 in MDA-MB-231 cellular assay; assay type: cell-based; conditions: MDA-MB-231 cells, substrate [3H]-E2 200 nM
Experimental: [^3H-E2] (200 nM) is used as substrate, and is incubated with the inhibitor for 3.5 h at 37° C. After ether extraction, substrate and product are separated by HPLC and detected with a radioflow detector following the method previously described.

[4] = target: T3, ERα (Homo sapiens, UniProt P03372); test: ER affinity assay (ERα), [3H]-E2 displacement; conditions: Relative Binding Affinity, E2 = 100%; recombinant human protein
T3 sequence (P03372 1-595): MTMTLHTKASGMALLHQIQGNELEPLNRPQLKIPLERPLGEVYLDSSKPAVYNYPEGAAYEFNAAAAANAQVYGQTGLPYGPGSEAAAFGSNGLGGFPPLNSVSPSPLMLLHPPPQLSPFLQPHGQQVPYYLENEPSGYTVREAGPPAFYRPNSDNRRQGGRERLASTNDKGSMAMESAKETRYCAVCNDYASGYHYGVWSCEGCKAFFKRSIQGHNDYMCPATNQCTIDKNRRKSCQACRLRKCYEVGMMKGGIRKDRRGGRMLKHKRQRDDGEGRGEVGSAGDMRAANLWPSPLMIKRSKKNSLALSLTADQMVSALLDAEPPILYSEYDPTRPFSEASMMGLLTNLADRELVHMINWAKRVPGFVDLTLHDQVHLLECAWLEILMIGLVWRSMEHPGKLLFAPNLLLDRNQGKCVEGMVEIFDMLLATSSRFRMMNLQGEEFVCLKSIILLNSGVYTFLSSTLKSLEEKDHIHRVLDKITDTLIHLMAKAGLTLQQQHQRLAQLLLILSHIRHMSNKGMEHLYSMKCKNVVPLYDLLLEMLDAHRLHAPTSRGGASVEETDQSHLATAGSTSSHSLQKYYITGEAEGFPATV
Experimental: (§2) The binding affinity of selected compounds to the ERα and ERβ was determined according to Zimmermann et al. (Zimmermann, J. et al., 3. Steroid Biochem. Mol. Biol., 94:57-66 (2005)) using recombinant human proteins. Briefly, 0.25 μM of ERα or ERβ, respectively, were incubated with [^3H]-E2 (10 nM) and test compound for 1 h at room temperature. The potential inhibitors were dissolved in DMSO (5% final concentration). Evaluation of non-specific-binding was performed with diethylstilbestrol (10 μM). After incubation, ligand-receptor complexes were selectively bound to hydroxyapatite (5 g/60 ml TE-buffer). The formed complex was separated, washed and resuspended in ethanol. For radiodetection, scintillator cocktail (Quickszint 212, Zinsser Analytic, Frankfurt) was added and the samples were measured in a liquid scintillation counter (Rack Beta Primo 1209, Wallac, Turku). […] The compound concentration to displace 50% of the receptor bound [^3H]-E2 were determined. Unlabelled E2 was used as a reference. For determination of the relative binding affinity (RBA) the ratio was calculated according to the following equation: […]
(§3) After the assay was established and validated a modification was made to increase throughput. […] Results were reported as RBA ranges.

[5] = target: ERβ (Homo sapiens, UniProt Q92731); test: ER affinity assay (ERβ), [3H]-E2 displacement; conditions: Relative Binding Affinity, E2 = 100%; recombinant human protein
ERβ, sequence (Q92731 whole entry): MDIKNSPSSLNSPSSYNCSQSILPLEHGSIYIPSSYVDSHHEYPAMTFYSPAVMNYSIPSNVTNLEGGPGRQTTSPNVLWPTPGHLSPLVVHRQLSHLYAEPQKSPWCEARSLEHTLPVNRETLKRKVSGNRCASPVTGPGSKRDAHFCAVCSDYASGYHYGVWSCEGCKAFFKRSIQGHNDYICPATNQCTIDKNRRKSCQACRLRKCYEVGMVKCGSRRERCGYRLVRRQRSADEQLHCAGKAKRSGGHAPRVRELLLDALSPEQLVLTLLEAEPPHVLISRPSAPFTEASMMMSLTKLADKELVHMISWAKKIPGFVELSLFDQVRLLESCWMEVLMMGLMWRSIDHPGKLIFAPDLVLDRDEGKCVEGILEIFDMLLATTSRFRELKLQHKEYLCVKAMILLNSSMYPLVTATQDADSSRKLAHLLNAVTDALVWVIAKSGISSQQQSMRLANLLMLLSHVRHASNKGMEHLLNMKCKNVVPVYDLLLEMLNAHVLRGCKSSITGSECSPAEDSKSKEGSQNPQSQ
Experimental: as §2, §3

[6] = target: T1, 17β-HSD2; test: Inhibition of 17β-HSD2 in cell-free assay; assay type: biochemical; parameters: 17β-HSD2 was obtained directly from the microsomal fraction; from tissue; host or cells: human placenta, microsomal fraction; conditions: human placenta, microsomal fraction, substrate E2 500 nM, cofactor NAD+ 1500 μM
Experimental: as §1
Inhibitor stock solutions were prepared in DMSO. Final concentration of DMSO was adjusted to 1% in all samples. The enzymatic reaction was started by addition of a mixture of unlabelled- and [^3H]-E2 (final concentration: 500 nM, 0.11 μCi). After 20 min at 37° C., the incubation was stopped with HgCl2 and the mixture was extracted with ether. After evaporation, the steroids were dissolved in acetonitrile. E1 and E2 were separated using acetonitrile/water (45:55) as mobile phase in a C18 RP chromatography column (Nucleodur C18, 3 μm, Macherey-Nagel, Duren) connected to a HPLC-system (Agilent 1100 Series, Agilent Technologies, Waldbronn). Detection and quantification of the steroids were performed using a radioflow detector (Berthold Technologies, Bad Wildbad). The conversion rate was calculated according to the following equation: […]

[7] = test system: osteoporosis model; conditions: monkeys; cited from earlier work

| SMILES | inhibitory activity (17β-HSD2) ([1]; at 100 nM) | inhibitory activity (17β-HSD2) ([1]; at 1 μM) | pIC50 [2] | inhibition at 1 µM [3] | ERα RBA (%) [4] | ERβ RBA (%) [5] | pIC50 [6] | effect on local level of E2 and T in bones [7] |
| --- | --- | --- | --- | --- | --- | --- | --- | --- |
| C[C@]12CCC3c4ccc(O)cc4CCC3C1CC[C@@]21CCCC(=O)O1 (stereo partly drawn) [C17-spirolactone 1] | 40% | 70% | – | – | – | – | – | – |
| CN(Cc1cccc(O)c1)C(=O)c1ccc(-c2ccccc2O)s1 [compound 28, N-(3-Hydroxybenzyl)-5-(2-hydroxyphenyl)-N-methylthiophene-2-carboxamide] | – | – | 5.53 | 75% | <0.1% | <0.1% | 6.83 | – |
| COc1ccc(-c2ccc(C(=O)N(C)Cc3cccc(O)c3)s2)cc1 [compound 39, N-(3-Hydroxybenzyl)-5-(4-methoxyphenyl)-N-methylthiophene-2-carboxamide] | – | – | < 4.40 | 88% | <0.1% | <0.1% | 6.79 | – |
| COc1cccc(N(C)C(=O)c2ccc(-c3ccccc3)s2)c1 [compound 51, N-(3-Methoxyphenyl)-N-methyl-5-phenylthiophene-2-carboxamide] | – | – | 5.36 | 67% | <0.1% | <0.1% | 6.68 | – |
| COc1cccc(N(C)C(=O)c2ccc(-c3cccc(OC)c3F)s2)c1 [compound 56, 5-(2-Fluoro-3-methoxyphenyl)-N-(3-methoxyphenyl)-N-methylthiophene-2-carboxamide] | – | – | – | 70% | <0.1% | <0.1% | 7.21 | – |
| COc1cccc(N(C)C(=O)c2ccc(-c3ccc(OC)c(F)c3)s2)c1 [compound 61, 5-(3-Fluoro-4-methoxyphenyl)-N-(3-methoxyphenyl)-N-methylthiophene-2-carboxamide] | – | – | < 4.40 | – | <0.1% | <0.1% | 6.62 | – |
| COc1cccc(-c2ccc(C(=O)N(C)c3cccc(C)c3)s2)c1 [compound 70, 5-(3-Methoxyphenyl)-N-methyl-N-m-tolylthiophene-2-carboxamide] | – | – | 4.94 | 50% | <0.1% | <0.1% | 6.68 | – |
| Cc1cccc(N(C)C(=O)c2ccc(-c3cccc(O)c3)s2)c1 [compound 71, 5-(3-Hydroxyphenyl)-N-methyl-N-m-tolylthiophene-2-carboxamide] | – | – | 5.17 | – | <0.1% | <0.1% | 6.19 | – |
| COc1cccc(-c2ccc(C(=O)N(C)c3cccc(C(F)(F)F)c3)s2)c1 [compound 75, 5-(3-Methoxyphenyl)-N-methyl-N-(3-(trifluoromethyl)phenyl)thiophene-2-carboxamide] | – | – | 4.91 | – | <0.1% | <0.1% | 6.14 | – |
| CN1C(=O)C[C@H](c2ccccc2)[C@@H]1[C@H](O)c1ccc(-c2cccnc2)s1 [inhibitor 3] | – | – | – | – | – | – | – | helps to maintain a sufficient local level of E2 and T in bones |
